For the assay, the target named is G-protein coupled estrogen receptor 1 (Homo sapiens) (UniProt Q99527). Kind of assay: GPER-mediated calcium mobilization modulators – HL-60 cells, Indo-1 fluorescence, 10 µM, primary screen (AID 1213). The note with it: Indo-1 calcium mobilization, at 10 µM, stronger effect = higher value. A general note: Calcium assays in cells follow changes in intracellular calcium, usually with a dye or a luminescent sensor.

This is an account of results in PubChem BioAssay AID1213 (NMMLSC, 2008).

Each structure is given as a SMILES string. Results filed as inconclusive are left out.

As to `O=C(O)c1ccc2c(c1)C1C=CCC1C(c1cc3c(cc1Br)OCO3)N2` (stereo unspecified), the calcium mobilization (agonist) was 100%.
